Experimental findings from ChEMBL document CHEMBL3994587, “An insight on synthetic and medicinal aspects of pyrazolo[1,5-a]pyrimidine scaffold” (Eur J Med Chem, 2017) are described below.

The inhibition is the drop in the measured response relative to a control, in per cent. As usually defined, the MIC is the lowest concentration found to suppress growth. Lower therefore signals a more susceptible organism. What is called Ki is the equilibrium dissociation constant of an inhibitor or competing ligand from its target. A word on the IC50: it is the concentration needed to halve the response being measured.

The species named for experiment [1] is Sus scrofa. Nature of the experiment: Inhibition of PDE in pig blood assessed as suppression of ADP-induced platelet aggregation at 50 ug/ml by turbidimetric method relative to control.
Experiment [2] is filed under the species Oryctolagus cuniculus. Nature of the experiment: Potency index, ratio of theophylline IC50 to compound IC50 for inhibition of PDE in rabbit lung homogenates using [8-3H]cAMP as substrate measured 3 times between 3 to 12 mins. The format is tissue-based.
For experiment [3], the species on record is Oryctolagus cuniculus. In words: Potency index, ratio of theophylline IC50 to compound IC50 for inhibition of PDE in rabbit kidney homogenates using [8-3H]cAMP as substrate measured 3 times between 3 to 12 mins. The format is tissue-based.
Experiment [4] concerns the target Estrogen receptor beta (Homo sapiens) (UniProt Q92731). Nature of the experiment: Displacement of [3H]E2 from ERbeta (unknown origin) by radiometric assay relative to estradiol. (Loss of bound radioactivity is the signal in a displacement assay; it reports binding, not function.)
The target in experiment [5] is T1, Estrogen receptor (Homo sapiens) (UniProt P03372).
T1 sequence (whole entry): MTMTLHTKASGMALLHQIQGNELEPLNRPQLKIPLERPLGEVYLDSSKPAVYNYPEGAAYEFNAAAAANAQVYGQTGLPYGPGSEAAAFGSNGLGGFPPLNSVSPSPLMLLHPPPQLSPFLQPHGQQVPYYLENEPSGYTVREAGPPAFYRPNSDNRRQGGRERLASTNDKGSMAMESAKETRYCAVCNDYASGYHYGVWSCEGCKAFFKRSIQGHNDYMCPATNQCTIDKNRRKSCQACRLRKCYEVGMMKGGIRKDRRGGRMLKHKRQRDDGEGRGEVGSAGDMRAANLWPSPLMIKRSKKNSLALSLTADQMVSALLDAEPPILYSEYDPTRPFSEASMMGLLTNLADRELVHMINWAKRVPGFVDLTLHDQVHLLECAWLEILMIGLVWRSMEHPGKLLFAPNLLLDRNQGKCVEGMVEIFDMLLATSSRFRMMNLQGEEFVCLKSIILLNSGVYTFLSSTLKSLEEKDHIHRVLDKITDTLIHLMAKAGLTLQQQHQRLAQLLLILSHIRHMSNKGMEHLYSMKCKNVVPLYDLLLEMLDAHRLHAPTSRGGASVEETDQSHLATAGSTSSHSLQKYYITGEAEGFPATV
In words: Displacement of [3H]E2 from ERalpha (unknown origin) by radiometric assay relative to estradiol.

The species named for experiment [6] is Sus scrofa. In words: Inhibition of PDE in pig blood assessed as suppression of ADP-induced platelet aggregation at 25 ug/ml by turbidimetric method relative to control.
The next experiment has as its system Aspergillus fumigatus. In words: Antifungal activity against Aspergillus fumigatus RCMB 002006 assessed as zone of inhibition at 30 ug/ml. Type of experiment: functional. As to conditions: read-out: IZ.
Another experiment has as its system Candida albicans. In words: Antifungal activity against Candida albicans RCMB 0005003 assessed as zone of inhibition at 30 ug/ml. The format is functional. To be noted: read-out: IZ.
The test system of experiment [7] is Syncephalastrum racemosum. In words: Antifungal activity against Syncephalastrum racemosum 005004 assessed as zone of inhibition at 30 ug/ml. As to conditions: read-out: IZ. Type of experiment: functional.
The test system of another experiment is Geotrichum candidum. Nature of the experiment: Antifungal activity against Geotrichum candidum 052008 assessed as zone of inhibition at 30 ug/ml. The format is functional. To be noted: read-out: IZ.
Experiment [8] deals with Trypanosoma cruzi. Nature of the experiment: Antitrypanosomal activity against Trypanosoma cruzi by serial dilution method. Type of experiment: functional.
For experiment [9], the system named is Trypanosoma cruzi. Nature of the experiment: Antitrypanosomal activity against bloodstream forms of Trypanosoma cruzi brazilian infected in C3H/He mouse assessed as increase in mean survival time at 100 mg/kg administered twice daily for 5 days via oral gavage starting from 3 days post infection. Type of experiment: functional.
For experiment [10], the target named is T2, Corticotropin-releasing factor receptor 1 (Homo sapiens, UniProt P34998).
T2 sequence (P34998 whole entry): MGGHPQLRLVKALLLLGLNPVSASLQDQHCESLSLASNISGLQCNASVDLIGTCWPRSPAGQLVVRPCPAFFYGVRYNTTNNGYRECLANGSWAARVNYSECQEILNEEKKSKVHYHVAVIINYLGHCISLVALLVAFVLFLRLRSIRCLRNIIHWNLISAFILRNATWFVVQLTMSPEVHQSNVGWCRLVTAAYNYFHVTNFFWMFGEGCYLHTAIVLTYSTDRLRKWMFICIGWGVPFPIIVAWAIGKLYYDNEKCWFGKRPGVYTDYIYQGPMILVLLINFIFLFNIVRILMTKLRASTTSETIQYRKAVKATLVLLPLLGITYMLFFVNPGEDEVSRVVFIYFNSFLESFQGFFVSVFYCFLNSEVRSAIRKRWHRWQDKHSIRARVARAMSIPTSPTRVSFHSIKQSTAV
In words: Displacement of [125I-Tyr0]-CRF from recombinant human CRF1 receptor.

The next experiment relates to Ehrlich. Nature of the experiment: Cytotoxicity against mouse EAC cells assessed as cell growth inhibition measured after 2 hrs by trypan blue exclusion assay. Type of experiment: functional, cell-based.
A further experiment concerns HCT-116. In words: Antiproliferative activity against human HCT116 cells measured after 48 hrs by SRB assay. The format is functional, cell-based. As to conditions: HCT-116, 48 h.
The species named for experiment [11] is Bos taurus. In words: Ratio of IC50 for displacement of [3H]RO15-1788 from benzodiazepine receptor in bovine brain membranes in absence of GABA to IC50 for displacement of [3H]RO15-1788 from benzodiazepine receptor in bovine brain membranes in presence of GABA. Type of experiment: cell membranes.
Experiment [12] can be described thus: Displacement of [3H]RO15-1788 from benzodiazepine receptor in bovine brain membranes. Type of experiment: cell membranes, Bos taurus, Membrane.
The species named for experiment [13] is Bos taurus. In words: Displacement of [3H]RO15-1788 from benzodiazepine receptor in bovine brain membranes at 10 uM relative to control. To be noted: Membrane. Type of experiment: cell membranes.
Another experiment deals with Staphylococcus aureus. Nature of the experiment: Antibacterial activity against Staphylococcus aureus RCMB 000108 assessed as zone of inhibition at 30 ug/ml. Type of experiment: functional. To be noted: read-out: IZ.
The next experiment concerns Escherichia coli. In words: Antibacterial activity against Escherichia coli RCMB 000106 assessed as zone of inhibition at 30 ug/ml. Type of experiment: functional. As to conditions: read-out: IZ.
Another experiment concerns Pseudomonas aeruginosa. In words: Antibacterial activity against Pseudomonas aeruginosa RCMB 000103 assessed as zone of inhibition at 30 ug/ml. Type of experiment: functional. As to conditions: read-out: IZ.
A further experiment relates to Bacillus subtilis. In words: Antibacterial activity against Bacillus subtilis RCMB 000109 assessed as zone of inhibition at 30 ug/ml. Type of experiment: functional. To be noted: read-out: IZ.
The species entered for experiment [14] is Bos taurus. Nature of the experiment: Displacement of [3H]RO15-1788 from benzodiazepine receptor in recombinant bovine brain membranes expressed in HEK293 cells at 0.2 nM after 1 hr relative to control. Type of experiment: cell-based. To be noted: Membrane.
A short description of experiment [15]: Displacement of [3H]RO15-1788 from benzodiazepine receptor in recombinant bovine brain membranes expressed in HEK293 cells after 1 hr. Type of experiment: cell-based, Bos taurus, Membrane.
For experiment [16], the target named is Gamma-aminobutyric acid receptor subunit alpha-5 (Rattus norvegicus, UniProt P19969). Nature of the experiment: Displacement of [3H]RO15-1788 from recombinant rat GABAalpha5 receptor expressed in HEK293 cells after 1 hr. Type of experiment: cell-based.
For experiment [17], the target named is Gamma-aminobutyric acid receptor subunit alpha-2 (Rattus norvegicus, UniProt P23576). In words: Displacement of [3H]RO15-1788 from recombinant rat GABAalpha2 receptor expressed in HEK293 cells after 1 hr. The format is cell-based.
Experiment [18] deals with Gamma-aminobutyric acid receptor subunit alpha-1 (Rattus norvegicus, UniProt P62813). Nature of the experiment: Displacement of [3H]RO15-1788 from recombinant rat GABAalpha1 receptor expressed in HEK293 cells after 1 hr. The format is cell-based.

Converted amounts (≈) assume the structure as drawn.

Chain of Estrogen receptor beta (Homo sapiens) (Q92731 whole entry): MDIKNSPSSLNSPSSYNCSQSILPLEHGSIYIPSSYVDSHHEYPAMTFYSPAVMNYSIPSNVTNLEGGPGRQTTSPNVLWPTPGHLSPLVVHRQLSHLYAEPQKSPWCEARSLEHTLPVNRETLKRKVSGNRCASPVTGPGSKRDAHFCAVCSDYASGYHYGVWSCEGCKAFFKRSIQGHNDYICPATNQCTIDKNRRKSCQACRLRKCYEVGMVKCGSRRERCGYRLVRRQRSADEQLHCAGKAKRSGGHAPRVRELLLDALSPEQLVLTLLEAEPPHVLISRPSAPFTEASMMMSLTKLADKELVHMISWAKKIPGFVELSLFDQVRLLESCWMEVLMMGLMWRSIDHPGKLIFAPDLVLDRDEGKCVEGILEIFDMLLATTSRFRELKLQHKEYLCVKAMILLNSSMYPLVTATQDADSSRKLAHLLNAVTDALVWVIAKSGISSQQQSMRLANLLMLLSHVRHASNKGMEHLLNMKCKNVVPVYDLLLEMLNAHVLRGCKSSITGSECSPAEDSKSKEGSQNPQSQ
Chain of Gamma-aminobutyric acid receptor subunit alpha-2 (P23576 whole entry): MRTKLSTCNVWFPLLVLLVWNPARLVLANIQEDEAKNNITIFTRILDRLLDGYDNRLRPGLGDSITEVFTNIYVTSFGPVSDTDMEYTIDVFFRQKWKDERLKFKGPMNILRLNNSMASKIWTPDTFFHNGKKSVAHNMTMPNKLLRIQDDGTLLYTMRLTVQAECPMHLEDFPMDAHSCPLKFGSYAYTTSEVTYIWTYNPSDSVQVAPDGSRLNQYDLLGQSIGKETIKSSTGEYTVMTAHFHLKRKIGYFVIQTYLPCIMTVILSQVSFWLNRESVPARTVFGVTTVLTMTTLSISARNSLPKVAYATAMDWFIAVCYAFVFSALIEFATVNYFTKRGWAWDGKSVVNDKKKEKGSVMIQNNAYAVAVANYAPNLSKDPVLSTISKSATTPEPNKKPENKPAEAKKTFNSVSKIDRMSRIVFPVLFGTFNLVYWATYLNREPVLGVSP
Chain of Gamma-aminobutyric acid receptor subunit alpha-1 (P62813 whole entry): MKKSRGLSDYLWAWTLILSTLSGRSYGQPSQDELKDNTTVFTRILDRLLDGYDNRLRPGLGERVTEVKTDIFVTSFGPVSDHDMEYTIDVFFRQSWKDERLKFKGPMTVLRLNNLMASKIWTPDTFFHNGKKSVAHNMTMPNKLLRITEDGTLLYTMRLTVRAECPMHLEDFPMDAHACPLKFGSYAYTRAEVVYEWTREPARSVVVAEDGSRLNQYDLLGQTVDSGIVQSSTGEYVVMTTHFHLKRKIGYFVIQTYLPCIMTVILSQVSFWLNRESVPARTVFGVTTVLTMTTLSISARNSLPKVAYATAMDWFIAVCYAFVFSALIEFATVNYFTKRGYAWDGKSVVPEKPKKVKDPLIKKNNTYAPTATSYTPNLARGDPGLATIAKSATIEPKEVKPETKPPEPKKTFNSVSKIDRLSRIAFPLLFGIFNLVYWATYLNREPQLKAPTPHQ
Chain of Gamma-aminobutyric acid receptor subunit alpha-5 (P19969 whole entry): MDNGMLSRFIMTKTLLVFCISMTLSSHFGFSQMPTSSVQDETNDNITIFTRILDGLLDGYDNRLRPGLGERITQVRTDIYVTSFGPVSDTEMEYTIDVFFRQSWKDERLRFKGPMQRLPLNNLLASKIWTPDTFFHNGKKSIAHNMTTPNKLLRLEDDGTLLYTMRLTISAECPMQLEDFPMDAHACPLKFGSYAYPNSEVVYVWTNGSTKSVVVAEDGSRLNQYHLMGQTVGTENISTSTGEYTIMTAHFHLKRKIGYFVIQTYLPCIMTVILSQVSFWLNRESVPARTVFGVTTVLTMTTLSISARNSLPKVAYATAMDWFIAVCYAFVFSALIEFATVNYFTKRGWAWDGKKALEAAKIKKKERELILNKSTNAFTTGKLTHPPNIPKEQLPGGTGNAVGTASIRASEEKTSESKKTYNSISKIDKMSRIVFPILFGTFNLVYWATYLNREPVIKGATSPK

Consider `CCOC(=O)c1cnc2c(Br)cnn2c1O`, for which the inhibition in the experiment listed under Sus scrofa [1] came out at 34%. Further, the values for the Ratio IC50 in the experiment filed under Oryctolagus cuniculus [2] and in the experiment filed under Oryctolagus cuniculus [3] were 0.5 and 1, respectively.

As to `Oc1ccc(-c2c(-c3ccccc3)nn3cccnc23)cc1`, the relative binding affinity (RBA) was determined as 0.023 in experiment [4] and 0.007 in experiment [5].

Turning to `CCOC(=O)c1cnc2c(Br)cnn2c1N`, the inhibition in the experiment filed under Sus scrofa [6] was 67%.

For the compound `CCC(C)n1ncn(-c2ccc(N3CCN(c4ccc(OCC5COC(Cn6cncn6)(c6ccc(Cl)cc6Cl)O5)cc4)CC3)cc2)c1=O` (centres undefined) [ITRACONAZOLE], the zone of inhibition at 30 µg/mL was found to be 27.4 mm in the experiment with Aspergillus fumigatus, 25.2 mm with Candida albicans, 23.9 mm in experiment [7] and 24.2 mm in the experiment on Geotrichum candidum.

With `Cc1cc(N/N=C/c2ccc([N+](=O)[O-])o2)n2nccc2n1`, in the experiment with Trypanosoma cruzi [8], the MLC amounted to 10 µg/mL (≈ 34.9 µM). Further, the lowest concentration to inhibit growth against Trypanosoma cruzi [8] (Trypanosoma cruzi) (MIC) was 10 µg/mL (≈ 34.9 µM). Further, in the experiment on Trypanosoma cruzi [9], the Activity was 63.4%.

With `CCC(CC)Nc1cc(C)nc2c(-c3ccc(C)cc3Cl)c(C)nn12`, the inhibition constant Ki in experiment [10] amounted to 1.5 nM.

On to `Cc1cc(C)n2nc(Nc3ccccc3)c(C(=O)Nc3ccccc3)c2n1`, for which the IC50 in the experiment on Ehrlich amounted to 10 µg/mL (≈ 28 µM).

On to `CSc1nn2c(NC3CCCCC3)cc(-c3ccccc3)nc2c1C#N`, for which 2 nM corresponded to half-maximal inhibition with HCT-116 (IC50).

Regarding `O=c1c(-c2ccsc2)c[nH]c2c(-c3ccsc3)cnn12`, in the experiment listed under Bos taurus [11], the Ratio IC50 was found to be 1.3. For the same compound, the affinity in experiment [12], expressed as Ki, was 16.3 nM. Further, in the experiment filed under Bos taurus [13], the inhibition amounted to 100%.

As to `CN[C@@H]1[C@H](O[C@H]2[C@H](O[C@H]3[C@H](O)[C@@H](O)[C@H](N=C(N)N)[C@@H](O)[C@@H]3N=C(N)N)O[C@@H](C)[C@]2(O)C=O)O[C@@H](CO)[C@H](O)[C@H]1O` [STREPTOMYCIN], the zone of inhibition at 30 µg/mL with Staphylococcus aureus was found to be 28.1 mm; with Escherichia coli, 29.7 mm; with Pseudomonas aeruginosa it was 25.2 mm; in the experiment on Bacillus subtilis, 29.7 mm.

With `O=c1c(-c2ccsc2)c[nH]c2c(-c3ccccn3)cnn12`, in the experiment listed under Bos taurus [14], the inhibition was 98%. For the same compound, the inhibitory constant (Ki) in experiment [15] amounted to 3.9 nM; in experiment [16], 740 nM; in experiment [17] it was 927 nM; in experiment [18] it was 7 nM.

As for `Clc1ccccc1C(c1ccccc1)(c1ccccc1)n1ccnc1` [CLOTRIMAZOLE], the zone of inhibition at 30 µg/mL was determined as 26.3 mm with Aspergillus fumigatus, 20.8 mm in the experiment on Candida albicans, 21.4 mm in [7] and 23.2 mm in the experiment on Geotrichum candidum.

On to `Oc1ccc(-c2nn3cccnc3c2-c2ccccc2)cc1`, for which the relative binding affinity (RBA) in [4] was found to be 0.05; in experiment [5] it was 0.01.
